Laboratory results from ChEMBL document CHEMBL5614414, “Discovery of novel arylpyridine derivatives for motile ciliogenesis” (Eur J Med Chem, 2024).
One block for each compound: values may come before it. Calls of active or inactive are those of the source. No cut-off for these calls is given here.

How the values were obtained:
Danio rerio [1] = organism: Danio rerio; test: Ex vivo activation of Foxj1-mediated motile ciliogenesis pathway in Tg(foxj1a:eGFP)hsc16 zebrafish TL embryo assessed as EGFP expression in spinal ependymal cells at 5 uM incubated for 24 hrs by fluorescent stereomicroscope analysis; type: functional, cell-based
Danio rerio [2] = organism: Danio rerio; test: Ex vivo activation of Foxj1-mediated motile ciliogenesis pathway in Tg(foxj1a:eGFP)hsc16 zebrafish TL embryo assessed as EGFP expression in spinal ependymal cells at 2.5 uM incubated for 24 hrs by fluorescent stereomicroscope analysis; type: functional, cell-based
Cytochrome P450 2C9 = Cytochrome P450 2C9 (Homo sapiens, UniProt P11712); test: Inhibition of human CYP2C9 using sulfaphenazole as […] relative to control; type: ADME
Chain of Cytochrome P450 2C9 (P11712 whole entry): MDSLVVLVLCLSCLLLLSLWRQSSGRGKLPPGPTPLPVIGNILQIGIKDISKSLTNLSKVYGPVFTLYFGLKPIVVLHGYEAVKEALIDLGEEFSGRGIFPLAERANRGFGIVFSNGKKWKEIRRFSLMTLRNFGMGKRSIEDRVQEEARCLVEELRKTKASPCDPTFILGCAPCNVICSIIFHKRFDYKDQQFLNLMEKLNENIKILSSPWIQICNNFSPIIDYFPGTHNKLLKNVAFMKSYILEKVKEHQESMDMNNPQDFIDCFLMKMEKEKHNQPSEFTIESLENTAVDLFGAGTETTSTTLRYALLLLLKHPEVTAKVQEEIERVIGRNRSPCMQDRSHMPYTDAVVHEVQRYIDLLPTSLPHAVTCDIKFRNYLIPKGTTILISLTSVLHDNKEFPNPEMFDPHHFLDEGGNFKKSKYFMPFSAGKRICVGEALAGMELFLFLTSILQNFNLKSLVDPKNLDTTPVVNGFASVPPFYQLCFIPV

[3] = Volume of distribution at steady state in male mouse at 1 mg/kg, iv; type: ADME, organism-based; settings: in vivo, read-out: Vdss
mTEC = test: Ex vivo activation of Foxj1-mediated motile ciliogenesis pathway in wild type C57BL/6 mTEC (mouse tracheal epithelial cells) assessed as increase in multiciliated cells at 5 uM administered for 4 days starting from airlift interface day 0 with replacement of fresh media for every two days by DAPI staining based confocal laser microscopic analysis; type: functional, cell-based; settings: time 4.0 day
[4] = Clearance in male mouse at 1 mg/kg, iv; type: ADME, organism-based; settings: in vivo
[5] = Metabolic stability in mouse liver microsomes assessed as compound remaining incubated for 30 mins; type: ADME, Microsome; settings: read-out: Stability
[6] = Metabolic stability in rat liver microsomes assessed as compound remaining incubated for 30 mins; type: ADME, Microsome; settings: read-out: Stability
[7] = Metabolic stability in human liver microsomes assessed as compound remaining incubated for 30 mins; type: ADME, Microsome; settings: read-out: Stability
Cytochrome P450 1A2 = molecular target: T1, Cytochrome P450 1A2 (Homo sapiens, UniProt P05177); test: Inhibition of human CYP1A2 using alpha-naphthoflavone as […] relative to control; type: ADME
T1 sequence (P05177 whole entry): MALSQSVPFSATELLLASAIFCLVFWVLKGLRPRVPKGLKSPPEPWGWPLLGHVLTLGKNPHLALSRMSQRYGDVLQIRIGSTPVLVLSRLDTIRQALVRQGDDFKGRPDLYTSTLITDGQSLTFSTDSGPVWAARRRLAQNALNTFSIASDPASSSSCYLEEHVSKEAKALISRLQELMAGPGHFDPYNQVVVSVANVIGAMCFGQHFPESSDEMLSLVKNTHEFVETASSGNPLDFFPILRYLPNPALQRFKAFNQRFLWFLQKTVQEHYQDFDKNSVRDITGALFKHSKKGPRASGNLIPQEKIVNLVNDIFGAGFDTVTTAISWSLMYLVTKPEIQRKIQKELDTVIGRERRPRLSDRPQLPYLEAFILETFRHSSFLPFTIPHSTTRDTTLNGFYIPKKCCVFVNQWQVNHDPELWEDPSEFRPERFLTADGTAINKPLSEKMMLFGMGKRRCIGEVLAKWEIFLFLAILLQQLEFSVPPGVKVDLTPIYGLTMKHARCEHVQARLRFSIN

Cytochrome P450 2C19 = Cytochrome P450 2C19 (Homo sapiens, UniProt P33261); test: Inhibition of human CYP2C19 using amitriptyline as substrate relative to control; type: ADME
Chain of Cytochrome P450 2C19 (P33261 whole entry): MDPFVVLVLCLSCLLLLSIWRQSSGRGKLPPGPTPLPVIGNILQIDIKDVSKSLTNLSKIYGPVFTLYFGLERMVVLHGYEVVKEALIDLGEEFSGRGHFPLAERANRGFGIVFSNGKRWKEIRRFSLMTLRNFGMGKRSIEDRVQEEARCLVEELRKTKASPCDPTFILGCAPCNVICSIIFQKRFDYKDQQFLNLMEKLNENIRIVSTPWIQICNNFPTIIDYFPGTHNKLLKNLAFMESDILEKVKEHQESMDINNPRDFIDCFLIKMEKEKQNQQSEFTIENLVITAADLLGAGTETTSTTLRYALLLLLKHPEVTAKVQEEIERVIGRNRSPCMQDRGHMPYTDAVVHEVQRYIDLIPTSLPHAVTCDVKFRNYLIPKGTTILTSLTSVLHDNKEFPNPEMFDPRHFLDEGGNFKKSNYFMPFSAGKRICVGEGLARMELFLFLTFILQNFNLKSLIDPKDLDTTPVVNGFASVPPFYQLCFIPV

Cytochrome P450 2D6 = Cytochrome P450 2D6 (Homo sapiens, UniProt P10635); test: Inhibition of human CYP2D6 using quinidine as […] relative to control; type: ADME
Chain of Cytochrome P450 2D6 (P10635 whole entry): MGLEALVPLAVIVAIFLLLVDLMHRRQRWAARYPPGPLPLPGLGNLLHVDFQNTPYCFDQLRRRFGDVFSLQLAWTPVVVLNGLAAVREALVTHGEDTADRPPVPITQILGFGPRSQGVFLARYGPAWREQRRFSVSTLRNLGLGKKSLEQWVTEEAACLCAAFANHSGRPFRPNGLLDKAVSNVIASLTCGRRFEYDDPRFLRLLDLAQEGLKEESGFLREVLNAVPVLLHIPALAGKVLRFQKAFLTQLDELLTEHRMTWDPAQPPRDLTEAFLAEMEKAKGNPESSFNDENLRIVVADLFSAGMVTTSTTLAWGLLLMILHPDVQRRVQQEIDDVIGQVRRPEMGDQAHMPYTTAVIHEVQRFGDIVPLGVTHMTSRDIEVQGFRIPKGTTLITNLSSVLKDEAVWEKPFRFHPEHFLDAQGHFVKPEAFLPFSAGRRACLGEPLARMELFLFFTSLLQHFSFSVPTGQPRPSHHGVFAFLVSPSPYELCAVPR

Cytochrome P450 3A4 = Cytochrome P450 3A4 (Homo sapiens, UniProt P08684); test: Inhibition of human CYP3A4 using ketoconazole as […] relative to control; type: ADME
Chain of Cytochrome P450 3A4 (P08684 whole entry): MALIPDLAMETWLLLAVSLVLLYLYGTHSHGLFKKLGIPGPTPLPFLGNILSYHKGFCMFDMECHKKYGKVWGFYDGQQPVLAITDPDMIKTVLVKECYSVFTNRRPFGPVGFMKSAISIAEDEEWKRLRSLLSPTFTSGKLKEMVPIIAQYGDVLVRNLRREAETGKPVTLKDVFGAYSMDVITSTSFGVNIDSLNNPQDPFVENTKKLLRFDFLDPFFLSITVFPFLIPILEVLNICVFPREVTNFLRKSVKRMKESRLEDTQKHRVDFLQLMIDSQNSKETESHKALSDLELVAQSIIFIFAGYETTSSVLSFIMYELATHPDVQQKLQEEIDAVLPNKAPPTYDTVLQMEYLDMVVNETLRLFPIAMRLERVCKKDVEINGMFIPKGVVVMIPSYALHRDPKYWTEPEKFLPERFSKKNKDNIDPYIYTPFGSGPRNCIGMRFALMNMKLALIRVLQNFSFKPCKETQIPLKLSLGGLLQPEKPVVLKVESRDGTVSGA

hERG = hERG (Homo sapiens, UniProt Q12809); test: Inhibition of hERG at 10 uM relative to control; type: toxicity
Chain of hERG (Q12809 whole entry): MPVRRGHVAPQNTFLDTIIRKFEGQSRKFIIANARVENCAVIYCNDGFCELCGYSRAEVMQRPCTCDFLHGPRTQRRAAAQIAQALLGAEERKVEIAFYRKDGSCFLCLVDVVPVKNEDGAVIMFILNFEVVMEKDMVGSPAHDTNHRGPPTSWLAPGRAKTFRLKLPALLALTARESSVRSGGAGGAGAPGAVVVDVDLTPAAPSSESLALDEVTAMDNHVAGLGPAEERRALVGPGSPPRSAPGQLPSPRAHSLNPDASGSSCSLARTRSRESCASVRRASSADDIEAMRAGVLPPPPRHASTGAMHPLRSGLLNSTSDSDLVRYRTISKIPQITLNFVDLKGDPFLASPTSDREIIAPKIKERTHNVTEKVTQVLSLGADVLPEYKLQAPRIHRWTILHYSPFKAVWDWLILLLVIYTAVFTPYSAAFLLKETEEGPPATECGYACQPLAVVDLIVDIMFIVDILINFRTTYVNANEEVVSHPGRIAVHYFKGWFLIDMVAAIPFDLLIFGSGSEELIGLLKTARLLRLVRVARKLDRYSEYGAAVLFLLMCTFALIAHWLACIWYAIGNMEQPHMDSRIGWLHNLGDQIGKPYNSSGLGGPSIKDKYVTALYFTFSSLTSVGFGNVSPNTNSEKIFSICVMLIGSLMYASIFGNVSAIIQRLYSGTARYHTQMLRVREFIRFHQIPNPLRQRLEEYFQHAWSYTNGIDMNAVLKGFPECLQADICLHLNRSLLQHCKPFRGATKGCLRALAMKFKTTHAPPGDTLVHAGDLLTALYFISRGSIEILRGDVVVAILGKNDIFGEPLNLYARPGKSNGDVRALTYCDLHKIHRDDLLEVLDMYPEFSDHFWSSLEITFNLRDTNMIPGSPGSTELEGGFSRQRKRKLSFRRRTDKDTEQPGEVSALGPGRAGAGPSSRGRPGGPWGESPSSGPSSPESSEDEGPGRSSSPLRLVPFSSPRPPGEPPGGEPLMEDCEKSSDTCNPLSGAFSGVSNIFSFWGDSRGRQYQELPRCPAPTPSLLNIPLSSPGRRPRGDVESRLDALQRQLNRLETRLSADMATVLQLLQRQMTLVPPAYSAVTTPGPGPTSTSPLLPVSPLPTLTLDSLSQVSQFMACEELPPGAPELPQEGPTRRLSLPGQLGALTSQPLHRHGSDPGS

[8] = Cytotoxicity against African green monkey Vero cells; type: toxicity, cell-based, Chlorocebus sabaeus
[9] = Cytotoxicity against human HFL1 cells; type: toxicity, cell-based
[10] = Cytotoxicity against mouse L929 cells; type: toxicity, cell-based
[11] = Cytotoxicity against mouse NIH3T3 cells; type: toxicity, cell-based
[12] = Cytotoxicity against CHO-K1 cells; type: toxicity, cell-based, Cricetulus griseus; settings: Chinese hamster
[13] = Tmax in male mouse at 5 mg/kg, po; type: ADME, organism-based; settings: in vivo
[14] = Cmax in male mouse at 5 mg/kg, po; type: ADME, organism-based; settings: in vivo
[15] = Half life in male mouse at 1 mg/kg, iv; type: ADME, organism-based; settings: in vivo
[16] = Half life in male mouse at 5 mg/kg, po; type: ADME, organism-based; settings: in vivo
[17] = AUCt in male mouse at 1 mg/kg, iv; type: ADME, organism-based; settings: in vivo
[18] = AUCt in male mouse at 5 mg/kg, po; type: ADME, organism-based; settings: in vivo
[19] = AUCinfinity in male mouse at 1 mg/kg, iv; type: ADME, organism-based; settings: in vivo
[20] = AUCinfinity in male mouse at 5 mg/kg, po; type: ADME, organism-based; settings: in vivo
[21] = Oral bioavailability in male mouse at 5 mg/kg; type: ADME, organism-based; settings: in vivo
Mus musculus [22] = test: Restoration of motile cilia in porcine pancreatic elastase-induced COPD C57BL/6 mouse model assessed as decrease in airway damage in trachea at 2 mg/kg, ip administered every other day for 2 weeks and measured 24 hrs post last dose by DAPI staining based confocal microscopic analysis; type: functional, organism-based
Mus musculus [23] = test: Restoration of motile cilia in porcine pancreatic elastase-induced COPD C57BL/6 mouse model assessed as increase in motile cilia in trachea at 2 mg/kg, ip administered every other day for 2 weeks and measured 24 hrs post last dose by DAPI staining based confocal microscopic analysis; type: functional, organism-based

SMILES: CC(C)(C)Nc1ncc(-c2cn[nH]c2)cc1-c1nc2ccccc2o1
Activity (Danio rerio [1]): Active

SMILES: CC(C)(C)Nc1ncc(-c2cnn(C(C)(C)CC(=O)O)c2)cc1-c1nc2ccccc2[nH]1
Activity (Danio rerio [1]): Active

SMILES: CC(CC(=O)O)n1cc(-c2cnc(NC(C)(C)C)c(-c3nc4ccccc4o3)c2)cn1 (configuration not stated)
Activity (Danio rerio [2]): Active

SMILES: Nc1cccc(-c2cnc(N3CCOCC3)c(-c3nc4ccccc4o3)c2)c1
Activity (Danio rerio [1]): Active

SMILES: CC(C)(C)Nc1ncc(-c2cccnc2)cc1-c1nc2ccccc2o1
Activity (Danio rerio [1]): Active

SMILES: CC(C)(C)Nc1ncc(-c2ccccn2)cc1-c1nc2ccccc2o1
Activity (Danio rerio [1]): Active

SMILES: CCCCNc1ncc(-c2cccc(N)c2)cc1-c1nc2ccccc2o1
Activity (Danio rerio [1]): Active

SMILES: CC(C)(C)Nc1ncc(-c2ccsc2)cc1-c1nc2ccccc2o1
Activity (Danio rerio [1]): Active

inhibition (INH) (Cytochrome P450 2C9): 31.9%
Vd [3]: 0.4 L/kg
clearance [4]: 1.33 mL/min/kg
remaining at 0.5 h [5]: > 99.9%
remaining at 0.5 h [6]: > 99.9%
remaining at 0.5 h [7]: > 99.9%
inhibition (INH) (Cytochrome P450 1A2): 1.17%
inhibition (INH) (Cytochrome P450 2C19): 17.4%
inhibition (INH) (Cytochrome P450 2D6): < 1%
inhibition (INH) (Cytochrome P450 3A4): < 1%
Tmax [13]: 3.67 h
Cmax [14]: 5160 ng/mL
half-life [15]: 3.51 h
half-life [16]: 3.55 h
AUC(0-t) [17]: 12500 ng·h/mL
AUC(0-t) [18]: 53100 ng·h/mL
AUC(0-inf) [19]: 12600 ng·h/mL
AUC(0-inf) [20]: 62900 ng·h/mL
bioavailability [21]: 85%
SMILES: CC(C)(C)Nc1ncc(-c2cnn(C(C)(C)CC(=O)O)c2)cc1-c1nc2ccccc2o1
Activity (Danio rerio [1]): Active
Activity (Danio rerio [2]): Active
Activity (mTEC): Active
inhibition at 10 µM (hERG): < 1%
IC50 [8]: > 100 µM
IC50 [9]: > 100 µM
IC50 [10]: > 100 µM
IC50 [11]: > 100 µM
IC50 [12]: > 100 µM
Activity (Mus musculus [22]): Active
Activity (Mus musculus [23]): Active

SMILES: CC(C)(C)Nc1ncc(-c2cccc(N)c2)cc1-c1nc2ccccc2o1
Activity (Danio rerio [1]): Active

SMILES: CN1CCN(c2ncc(-c3cccc(N)c3)cc2-c2nc3ccccc3o2)CC1
Activity (Danio rerio [1]): Active

SMILES: Nc1cccc(-c2cnc(N)c(-c3nc4ccccc4o3)c2)c1
Activity (Danio rerio [1]): inactive

SMILES: CC(C)(C)Nc1ncc(-c2ccccc2)cc1-c1nc2ccccc2o1
Activity (Danio rerio [1]): Active

SMILES: CC(C)(C)Nc1ncc(-c2cnn(CCC(=O)O)c2)cc1-c1nc2ccccc2o1
Activity (Danio rerio [2]): Active

SMILES: Nc1cccc(-c2cnc(N3CCNCC3)c(-c3nc4ccccc4o3)c2)c1
Activity (Danio rerio [1]): Active

SMILES: Nc1cccc(-c2cnc(N3CCCCC3)c(-c3nc4ccccc4o3)c2)c1
Activity (Danio rerio [1]): Active

SMILES: CNc1ncc(-c2cccc(N)c2)cc1-c1nc2ccccc2o1
Activity (Danio rerio [1]): Active

SMILES: CC(C)(C)Nc1ncc(-c2ccoc2)cc1-c1nc2ccccc2o1
Activity (Danio rerio [1]): Active
